Reference: the supplement of paper PMC10307832

Assays:
[1] = compound: CC1=C(C(=NN1)C)CC2=C(C3=C(S2)N(C(=O)N(C3=O)C)CC(C)C)C(=O)N4C[C@@H](CO4)O + CC(=O)Nc1cccc(-n2c(=O)n(C3CC3)c(=O)c3c(Nc4ccc(I)cc4F)n(C)c(=O)c(C)c32)c1 [Trametinib] (partner 0.02 µM); test: relative viability (nuclei count vs DMSO), 5 days (fraction); higher = more cells survive
Summary of the method: (§1)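 Relative viability is defined as nuclei in treated wells over nuclei in vehicle wells. Duplicate plates were run and medians reported. Lung cancer cell lines in 1536-well plates were dosed by pin tool one day after seeding, with one drug or with a fixed anchor-drug dose plus five library-drug doses (not always all listed) in √10 steps, and nuclei were counted after 5 days.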

[2] = compound: CC1=C(C(=NN1)C)CC2=C(C3=C(S2)N(C(=O)N(C3=O)C)CC(C)C)C(=O)N4C[C@@H](CO4)O + NC(=O)Nc1cc(-c2cccc(F)c2)sc1C(=O)N[C@H]1CCCNC1 [AZD7762] (partner 0.2 µM); test: as above
Summary of the method: as §1

Cell Line | relative viability ([1]; first compound 0.0025 µM) | relative viability ([1]; first compound 0.007906 µM) | relative viability ([1]; first compound 0.025 µM) | relative viability ([1]; first compound 0.07906 µM) | relative viability ([1]; first compound 0.25 µM) | relative viability ([2]; first compound 0.0025 µM) | relative viability ([2]; first compound 0.007906 µM) | relative viability ([2]; first compound 0.025 µM) | relative viability ([2]; first compound 0.07906 µM) | relative viability ([2]; first compound 0.25 µM)
RERF-LC-KJ | 0.898 | 0.94 | 0.838 | 0.883 | 0.909 | 1.01 | 1.16 | 0.888 | 1.1 | 1.01
SW 900 | 0.666 | 0.951 | 0.787 | 0.74 | 0.8 | 0.604 | 0.706 | 0.628 | 0.58 | 0.449
